Marks after values point to notes of the source that are not given here.

Experiment [1] has as its system human epidermoid carcinoma cell line A-431. The experiment can be described thus: Tight-junction function, lucifer yellow transmittance (Experiments 2 and 8). Format: cell-based. As to conditions: for Relative transmittance of lucifer yellow (%): control = 100%. An excerpt: A human epidermoid carcinoma cell line A-431 was suspended in a media, supplemented with any of the test substances disclosed in Table 4 and having respective concentrations as indicated in the table, to give a cell concentration of 1×10^5 cells/mL, and each cell suspension was placed in an insert cup for a 12-well culture plate by two milliliters per well, followed by culturing the cells until reaching a confluent state through over the bottom surface of each well. The inner and the outer cup volumes were adjusted to give two milliliters while checking both the liquid levels of the cups were constant, and lucifer yellow as a model for permeating substance, commercialized by Life Technologies Corporation, CA, USA, was added to each inner cup to give a final concentration of 100 μM. Thereafter, the fluorescent intensities of lucifer yellow in the culture media in both the inner and the outer cups were measured, followed by calculating the percentage of the fluorescent intensity of the outer cup against that of the sum of the outer and the inner cups for use as a transmittance of lucifer yellow with the following equation. Equation: Transmittance of lucifer yellow (%)={(Absorbance of a liquid outside of an insert cup)/[(Absorbance of a liquid inside of the insert cup)+(Absorbance of the liquid outside of the insert cup)]}×100
There was provided a control system prepared similarly as above except for not adding any of the test substances, and the transmittance of lucifer yellow was regarded as 100% for evaluating the reduction of transmittance due to the reinforcement of the function of tight junction, based on the following equation. Equation: Relative transmittance (Relative percentage (%)) of lucifer yellow=[(Transmittance of a sample with any one of test substances)/(Transmittance of control)]×100
The experiment was repeated three times, and the data was subjected to the Dunnett's multiple comparisons with control. The symbol “*” means a level of significance of p<0.01.
Except for adding the test substances listed in Table 11 at respective concentrations shown in the table, experiments were respectively conducted in accordance with the methods in Experiment 2 disclosed in the specification to examine the effect of the combination use with ethylenediaminetetraacetate used as a preservative for cosmetics on the action of reinforcing the function of tight junction by sodium adenosine N1-oxide 5′-phosphate. A control system was provided and similarly treated as above except for not adding any test substance. The reduction rate of relative transmittance of lucifer yellow against that of control based on the following equation. Equation: Reduction rate of relative transmittance of lucifer yellow (%)=100−[(Transmittance of a sample with any one of test substances)/(Transmittance of control)]×100

In experiment [2] the test system is normal human epidermal keratinocytes. Description: Production level of cornified envelope, absorbance 310 nm (Experiments 1-2 and 7). The class given is cell-based. As to conditions: for Production level (%) of cornified envelope: control = 100%. The protocol:
Normal human epidermal keratinocytes were cultured similarly as in Experiment 1-1, except for adding the test substances listed in Table 2 at prescribed concentrations to the cells. The resulting cultured cells were washed once with phosphate buffered saline (PBS), followed by scrapping off the cells adhered to each culture plate by adding 0.5 mL of PBS to each well of the plates. The cell suspensions thus obtained were added with 10% sodium lauryl sulfate solution in a volume of ¼ of each of the suspension volumes, followed by stirring and freezing the resulting mixtures at −80° C. After thawing, the resulting mixtures were centrifuged at 12,000×g for 15 min, followed by collecting the cell precipitates which were then washed once with phosphate buffered saline containing 2% sodium lauryl sulfate. The resulting mixtures were centrifuged at 12,000×g for 15 min, followed by collecting the cells and suspending the collected cells with phosphate buffered saline containing 2% sodium lauryl sulfate and 20 mM dithiothreitol. The resulting cell suspensions were boiled in a boiling water bath for one hour and measured for absorbance at a wavelength of 310 nm to determine the production level of cornified envelope for each test system added with any of the test substances. A control system was provided similarly as above except for not adding any one of the test substances to the system, and determined for absorbance at a wavelength of 310 nm similarly as in the above to be regarded as 100%. The production level of cornified envelope for each test substance was relatively evaluated based on the following equation. Equation: Production level of cornified envelope (Relative value (%))=[(Absorbance of a sample with any one of test substances)/(Absorbance of Control)]×100
The experiment was repeated three times, and the data was subjected to the Dunnett's multiple comparisons with Control. The symbol “*” means a level of significance of p<0.01.
Except for adding the test substances listed in Tables 8 and 9 at respective concentrations shown in the tables, experiments were respectively conducted in accordance with the methods in Experiments 1-2 and 1-3 disclosed in the specification to examine the effect of the combination use of epigallocatechin gallate, which is used as an antioxidant for cosmetics, and sodium adenosine N1-oxide 5′-phosphate on the action of accelerating the cornified-envelope production and the action of enhancing the transglutaminase activity of sodium adenosine N1-oxide 5′-phosphate. A control system was provided and similarly treated as above except for not adding any test substance and was determined for both the increase rates of cornified-envelope production level and the transglutaminase activity, based on the following equations. Equation: Increase rate of cornified envelope production level (%)={[(Absorbance of a sample with any one of test substances)/(Absorbance of control)]×100}−100 Equation: Increase rate of transglutaminase (%)={[(Absorbance of a sample with any one of test substances)/(Absorbance of control)]×100}−100

For “5′-α-glucosyl adenosine N1-oxide [5′-α-Glucosyladenosine N1-oxide]”, the “Relative transmittance of lucifer yellow (%)” value is on record as 97.1% in experiment [1] (200 μM) and 96.8% in experiment [1] (400 μM). In experiment [2] (600 μM), the “Production level (%) of cornified envelope” value (from here on “Production level (%)”) is given as 148.8* %.

Turning to `Nc1ncnc2c1ncn2[C@@H]1O[C@H](COP(=O)(O)O)[C@@H](O)[C@H]1O` [Adenosine 5′-phosphate, reference compound], the “Relative transmittance of lucifer yellow (%)” value amounted to 90.6% in experiment [1] (200 μM) and 81.6% in experiment [1] (400 μM). Moreover, the “Production level (%)” value in experiment [2] (400 μM) is 136.5%.

Take `Nc1c2ncn([C@@H]3O[C@H](CO)[C@@H](O)[C@H]3O)c2nc[n+]1[O-]` [Adenosine N1-oxide, adenosine N1-oxide]: the “Relative transmittance of lucifer yellow (%)” value in experiment [1] (10 μM) is given as 71.6* %; in experiment [1] (20 μM), 71.3* %. For the same compound, the “Production level (%)” value in experiment [2] (25 μM) is on record as 178.7* %; in experiment [2] (25 μM, listed as adenosine N-1 oxide) it was “about 180%”.

For `Nc1c2ncn([C@@H]3O[C@H](COP(=O)([O-])O)[C@@H](O)[C@H]3O)c2nc[n+]1[O-].[Na+]` [Sodium adenosine N1-oxide 5′-phosphate, sodium adenosine N1-oxide 5′-phosphate], in experiment [1] (10 μM, single use, reduction against control), the “Reduction rate of relative transmittance of lucifer yellow (%)” value turned out to be 21.6%. In addition, the “Relative transmittance of lucifer yellow (%)” value in experiment [1] (10 μM) is reported as 78.4%; in experiment [1] (20 μM), 62.3* %. The “reduction of lucifer yellow transmittance” value in experiment [1] (20 μM, compared to control) is “about 60%”. Further, the “Increase rate of cornified envelope formation level (%)” value in experiment [2] (15 μM, single use, increase over control) turned out to be 2.8%. Besides, the “Production level (%)” value in experiment [2] (25 μM) is 178.7* %; in experiment [2] (25 μM, listed as adenosine N1-oxide 5′-phosphate), “about 180%”.

With “3′-α-Glucosyladenosine [reference compound]”, the results for the “Relative transmittance of lucifer yellow (%)” value in experiment [1] (200 μM) and in experiment [1] (400 μM) were 94.5% and 94.8%, respectively. Also, the “Production level (%)” value in experiment [2] (800 μM) was 104.2%.

For “5′-α-Glucosyladenosine [reference compound]”, the “Relative transmittance of lucifer yellow (%)” value in experiment [1] (200 μM) was found to be 94.2%; in experiment [1] (400 μM), 82.3%.

In the case of `Nc1ncnc2c1ncn2[C@@H]1O[C@H](CO)[C@@H](O)[C@H]1O` [Adenosine, reference compound], the “Relative transmittance of lucifer yellow (%)” value is on record as 77.1* % in experiment [1] (200 μM) and 67.4* % in experiment [1] (400 μM). For the same compound, in experiment [2] (400 μM), the “Production level (%)” value is given as 101.7%.

In the case of “3′-α-glucosyl adenosine N1-oxide [3′-α-Glucosyladenosine N1-oxide]”, the “Relative transmittance of lucifer yellow (%)” value in experiment [1] (200 μM) is reported as 112.3%; in experiment [1] (400 μM) it was 102.3%. Also, in experiment [2] (200 μM), the “Production level (%)” value was 141.4* %.

Values taken from patent US10071042B2, “External dermatological agent for anti-ageing” (Hayashibara Co., Ltd., priority 2014, dated 2018).
